Data taken from ChEMBL document CHEMBL4507258 (2021).

Key:
[1] = target: Ephrin type-A receptor 4 (Homo sapiens) (UniProt P54764); details: Compound concentration 1000.0 nM
[2] = target: Transient receptor potential cation channel subfamily M member 6 (Homo sapiens) (UniProt Q9BX84); details: Compound concentration 1000.0 nM
[3] = target: Serine/threonine-protein kinase Chk2 (Homo sapiens) (UniProt O96017); details: Compound concentration 1000.0 nM
[4] = target: RAF proto-oncogene serine/threonine-protein kinase (Homo sapiens) (UniProt P04049); details: Compound concentration 1000.0 nM
[5] = target: cAMP-dependent protein kinase catalytic subunit alpha (Homo sapiens) (UniProt P17612); details: Compound concentration 1000.0 nM
[6] = target: Aurora kinase A (Homo sapiens) (UniProt O14965); details: Compound concentration 1000.0 nM
[7] = target: Serine/threonine-protein kinase PAK 6 (Homo sapiens) (UniProt Q9NQU5); details: Compound concentration 1000.0 nM
[8] = target: Serine/threonine-protein kinase PLK4 (Homo sapiens) (UniProt O00444); details: Compound concentration 1000.0 nM
[9] = target: Fibroblast growth factor receptor 4 (Homo sapiens) (UniProt P22455); details: Compound concentration 1000.0 nM
[10] = target: Vascular endothelial growth factor receptor 3 (Homo sapiens) (UniProt P35916); details: Compound concentration 1000.0 nM
[11] = target: Serine/threonine-protein kinase 26 (Homo sapiens) (UniProt Q9P289); details: Compound concentration 1000.0 nM
[12] = target: Serine/threonine-protein kinase pim-3 (Homo sapiens) (UniProt Q86V86); details: Compound concentration 1000.0 nM
[13] = target: Myosin-IIIa (Homo sapiens) (UniProt Q8NEV4); details: Compound concentration 1000.0 nM
[14] = target: Death-associated protein kinase 1 (Homo sapiens) (UniProt P53355); details: Compound concentration 1000.0 nM
[15] = test system: Fibroblast growth factor receptor 3 (Homo sapiens), P22607 [G697C]; details: Compound concentration 1000.0 nM
[16] = target: Tyrosine-protein kinase Mer (Homo sapiens) (UniProt Q12866); details: Compound concentration 1000.0 nM
[17] = target: Ribosomal protein S6 kinase alpha-4 (Homo sapiens) (UniProt O75676); details: Compound concentration 1000.0 nM
[18] = target: Interleukin-1 receptor-associated kinase 1 (Homo sapiens) (UniProt P51617); details: Compound concentration 1000.0 nM
[19] = target: Mitogen-activated protein kinase kinase kinase kinase 1 (Homo sapiens) (UniProt Q92918); details: Compound concentration 1000.0 nM
[20] = target: Tyrosine-protein kinase ITK/TSK (Homo sapiens) (UniProt Q08881); details: Compound concentration 1000.0 nM
[21] = test system: Tyrosine-protein kinase ABL1 (Homo sapiens), P00519 [T315I]; details: Compound concentration 1000.0 nM
[22] = target: Histamine H2 receptor (Homo sapiens) (UniProt P25021); details: Compound concentration 10.0 uM
[23] = target: Myotonin-protein kinase (Homo sapiens) (UniProt Q09013); details: Compound concentration 1000.0 nM
[24] = target: Tyrosine-protein kinase TXK (Homo sapiens) (UniProt P42681); details: Compound concentration 1000.0 nM
[25] = target: Rho-associated protein kinase 2 (Homo sapiens) (UniProt O75116); details: Compound concentration 1000.0 nM
[26] = target: Serine/threonine-protein kinase LATS1 (Homo sapiens) (UniProt O95835); details: Compound concentration 1000.0 nM
[27] = test system: Phosphatidylinositol 4,5-bisphosphate 3-kinase catalytic subunit alpha isoform (Homo sapiens), P42336 [C420R]; details: Compound concentration 1000.0 nM
[28] = target: Serine/threonine-protein kinase Nek2 (Homo sapiens) (UniProt P51955); details: Compound concentration 1000.0 nM
[29] = target: Serine/threonine-protein kinase D2 (Homo sapiens) (UniProt Q9BZL6); details: Compound concentration 1000.0 nM
[30] = target: Dual specificity mitogen-activated protein kinase kinase 6 (Homo sapiens) (UniProt P52564); details: Compound concentration 1000.0 nM
[31] = target: Serine/threonine-protein kinase ICK (Homo sapiens) (UniProt Q9UPZ9); details: Compound concentration 1000.0 nM
[32] = target: Ribosomal protein S6 kinase alpha-4 (Homo sapiens) (UniProt O75676); details: Compound concentration 1000.0 nM; remark: listed apart in the source
[33] = target: Casein kinase I isoform alpha (Homo sapiens) (UniProt P48729); details: Compound concentration 1000.0 nM
[34] = target: Inhibitor of nuclear factor kappa-B kinase subunit epsilon (Homo sapiens) (UniProt Q14164); details: Compound concentration 1000.0 nM
[35] = target: Calcium/calmodulin-dependent protein kinase type IV (Homo sapiens) (UniProt Q16566); details: Compound concentration 1000.0 nM
[36] = target: Mitogen-activated protein kinase 15 (Homo sapiens) (UniProt Q8TD08); details: Compound concentration 1000.0 nM
[37] = target: Activin receptor type-1 (Homo sapiens) (UniProt Q04771); details: Compound concentration 1000.0 nM
[38] = target: Ephrin type-A receptor 5 (Homo sapiens) (UniProt P54756); details: Compound concentration 1000.0 nM
[39] = target: Calcium/calmodulin-dependent protein kinase type II subunit delta (Homo sapiens) (UniProt Q13557); details: Compound concentration 1000.0 nM
[40] = target: 5'-AMP-activated protein kinase catalytic subunit alpha-1 (Homo sapiens) (UniProt Q13131); details: Compound concentration 1000.0 nM
[41] = target: Ankyrin repeat and protein kinase domain-containing protein 1 (Homo sapiens) (UniProt Q8NFD2); details: Compound concentration 1000.0 nM
[42] = target: Phosphorylase b kinase gamma catalytic chain, skeletal muscle/heart isoform (Homo sapiens) (UniProt Q16816); details: Compound concentration 1000.0 nM
[43] = test system: Phosphatidylinositol 4,5-bisphosphate 3-kinase catalytic subunit alpha isoform (Homo sapiens), P42336 [H1047Y]; details: Compound concentration 1000.0 nM
[44] = target: Phosphatidylinositol 5-phosphate 4-kinase type-2 beta (Homo sapiens) (UniProt P78356); details: Compound concentration 1000.0 nM
[45] = target: Mitogen-activated protein kinase kinase kinase 3 (Homo sapiens) (UniProt Q99759); details: Compound concentration 1000.0 nM

Sequence of Ribosomal protein S6 kinase alpha-4 (Homo sapiens) (O75676 whole entry, looked up, canonical isoform): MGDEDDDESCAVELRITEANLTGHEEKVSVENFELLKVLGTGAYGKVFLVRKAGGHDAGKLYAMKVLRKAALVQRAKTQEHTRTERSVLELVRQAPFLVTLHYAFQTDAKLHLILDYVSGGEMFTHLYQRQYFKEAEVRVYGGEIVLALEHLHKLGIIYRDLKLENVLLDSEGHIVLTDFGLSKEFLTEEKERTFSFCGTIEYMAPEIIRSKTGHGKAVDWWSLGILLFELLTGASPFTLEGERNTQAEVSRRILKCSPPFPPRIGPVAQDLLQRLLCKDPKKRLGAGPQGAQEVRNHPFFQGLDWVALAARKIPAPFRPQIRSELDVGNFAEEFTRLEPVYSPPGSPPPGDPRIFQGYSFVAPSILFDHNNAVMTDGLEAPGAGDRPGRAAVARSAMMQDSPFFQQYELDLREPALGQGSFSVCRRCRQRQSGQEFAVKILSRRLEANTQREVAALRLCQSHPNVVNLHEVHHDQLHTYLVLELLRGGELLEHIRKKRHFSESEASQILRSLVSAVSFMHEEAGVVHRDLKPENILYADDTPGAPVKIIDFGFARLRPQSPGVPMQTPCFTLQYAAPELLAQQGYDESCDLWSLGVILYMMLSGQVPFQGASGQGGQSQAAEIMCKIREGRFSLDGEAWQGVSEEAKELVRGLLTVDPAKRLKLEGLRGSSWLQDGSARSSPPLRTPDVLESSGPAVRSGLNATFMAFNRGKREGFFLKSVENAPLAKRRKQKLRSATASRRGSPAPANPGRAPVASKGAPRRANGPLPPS
Sequence of Aurora kinase A (Homo sapiens) (O14965 whole entry): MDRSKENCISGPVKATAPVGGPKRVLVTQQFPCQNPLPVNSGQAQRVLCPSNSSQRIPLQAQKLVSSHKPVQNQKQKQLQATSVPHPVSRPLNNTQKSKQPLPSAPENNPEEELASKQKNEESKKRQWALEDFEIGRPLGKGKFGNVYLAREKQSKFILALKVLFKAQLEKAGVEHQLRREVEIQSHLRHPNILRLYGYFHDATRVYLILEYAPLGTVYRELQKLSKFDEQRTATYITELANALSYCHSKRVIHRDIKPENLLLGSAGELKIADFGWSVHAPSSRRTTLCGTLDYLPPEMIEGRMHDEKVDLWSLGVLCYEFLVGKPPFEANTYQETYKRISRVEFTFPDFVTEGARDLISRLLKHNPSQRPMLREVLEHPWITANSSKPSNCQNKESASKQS
Sequence of Phosphatidylinositol 4,5-bisphosphate 3-kinase catalytic subunit alpha isoform (Homo sapiens), P42336 [H1047Y] (P42336 whole entry H1047Y, canonical isoform): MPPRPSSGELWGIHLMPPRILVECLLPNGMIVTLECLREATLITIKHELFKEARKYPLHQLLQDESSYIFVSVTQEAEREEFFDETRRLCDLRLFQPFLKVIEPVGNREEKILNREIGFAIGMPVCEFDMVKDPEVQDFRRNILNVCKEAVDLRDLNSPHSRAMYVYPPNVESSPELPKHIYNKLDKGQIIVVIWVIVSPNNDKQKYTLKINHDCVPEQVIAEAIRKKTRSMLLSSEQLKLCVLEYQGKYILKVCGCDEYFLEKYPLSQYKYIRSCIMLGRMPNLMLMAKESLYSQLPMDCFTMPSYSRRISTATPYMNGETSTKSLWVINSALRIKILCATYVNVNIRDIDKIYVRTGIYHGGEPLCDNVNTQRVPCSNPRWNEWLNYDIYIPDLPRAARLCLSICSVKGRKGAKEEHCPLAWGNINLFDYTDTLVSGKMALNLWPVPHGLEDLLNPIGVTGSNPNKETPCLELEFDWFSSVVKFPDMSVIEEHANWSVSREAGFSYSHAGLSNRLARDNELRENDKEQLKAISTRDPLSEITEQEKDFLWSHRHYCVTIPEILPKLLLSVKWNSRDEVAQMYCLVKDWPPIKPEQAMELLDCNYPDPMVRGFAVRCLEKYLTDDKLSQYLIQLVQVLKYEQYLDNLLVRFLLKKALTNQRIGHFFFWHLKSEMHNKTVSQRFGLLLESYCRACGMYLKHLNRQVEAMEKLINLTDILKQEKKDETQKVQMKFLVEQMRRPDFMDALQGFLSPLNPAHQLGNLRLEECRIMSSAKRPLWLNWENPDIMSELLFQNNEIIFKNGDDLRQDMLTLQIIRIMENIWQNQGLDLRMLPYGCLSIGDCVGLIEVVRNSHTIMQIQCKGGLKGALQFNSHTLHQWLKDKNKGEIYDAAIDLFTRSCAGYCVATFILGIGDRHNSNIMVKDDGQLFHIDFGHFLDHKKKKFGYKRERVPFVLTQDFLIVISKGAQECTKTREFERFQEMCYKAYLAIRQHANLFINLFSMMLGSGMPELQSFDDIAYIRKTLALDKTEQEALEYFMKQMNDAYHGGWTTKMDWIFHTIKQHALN
Sequence of Tyrosine-protein kinase TXK (Homo sapiens) (P42681 whole entry): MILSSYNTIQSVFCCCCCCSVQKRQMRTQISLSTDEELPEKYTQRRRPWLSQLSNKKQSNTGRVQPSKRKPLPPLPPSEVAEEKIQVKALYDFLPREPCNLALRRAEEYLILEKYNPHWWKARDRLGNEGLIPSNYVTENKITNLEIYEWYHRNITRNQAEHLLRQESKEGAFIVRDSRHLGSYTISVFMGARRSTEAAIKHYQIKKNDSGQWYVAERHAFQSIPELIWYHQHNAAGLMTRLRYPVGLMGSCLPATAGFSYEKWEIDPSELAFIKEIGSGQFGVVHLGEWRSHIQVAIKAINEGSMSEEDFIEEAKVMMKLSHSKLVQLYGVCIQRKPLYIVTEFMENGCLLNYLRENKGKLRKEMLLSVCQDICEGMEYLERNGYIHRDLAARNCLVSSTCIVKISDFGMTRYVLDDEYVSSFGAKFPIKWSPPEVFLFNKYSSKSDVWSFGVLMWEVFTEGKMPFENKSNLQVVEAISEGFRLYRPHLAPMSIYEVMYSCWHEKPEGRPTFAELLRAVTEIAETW
Sequence of Calcium/calmodulin-dependent protein kinase type II subunit delta (Homo sapiens) (Q13557 whole entry): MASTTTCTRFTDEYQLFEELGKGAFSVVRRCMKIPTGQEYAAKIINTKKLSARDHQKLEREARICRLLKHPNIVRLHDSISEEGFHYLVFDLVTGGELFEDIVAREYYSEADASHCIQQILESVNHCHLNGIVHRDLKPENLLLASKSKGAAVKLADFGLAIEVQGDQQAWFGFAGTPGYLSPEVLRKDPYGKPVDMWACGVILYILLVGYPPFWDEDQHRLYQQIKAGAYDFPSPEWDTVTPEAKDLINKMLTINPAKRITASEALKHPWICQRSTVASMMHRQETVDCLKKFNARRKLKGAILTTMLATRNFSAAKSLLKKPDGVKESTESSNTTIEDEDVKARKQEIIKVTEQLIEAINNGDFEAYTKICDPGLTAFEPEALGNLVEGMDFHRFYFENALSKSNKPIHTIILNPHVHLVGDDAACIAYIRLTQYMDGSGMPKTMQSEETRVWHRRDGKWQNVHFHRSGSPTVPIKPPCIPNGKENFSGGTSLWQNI
Sequence of Dual specificity mitogen-activated protein kinase kinase 6 (Homo sapiens) (P52564 whole entry): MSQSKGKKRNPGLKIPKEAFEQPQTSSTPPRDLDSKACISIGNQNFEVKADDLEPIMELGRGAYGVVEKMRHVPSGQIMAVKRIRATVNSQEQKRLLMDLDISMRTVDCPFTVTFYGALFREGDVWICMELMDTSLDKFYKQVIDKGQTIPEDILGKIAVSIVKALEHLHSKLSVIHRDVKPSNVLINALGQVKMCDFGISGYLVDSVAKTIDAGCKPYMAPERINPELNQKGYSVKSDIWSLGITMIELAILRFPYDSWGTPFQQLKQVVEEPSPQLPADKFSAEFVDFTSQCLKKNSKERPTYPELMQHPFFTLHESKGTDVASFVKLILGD
Sequence of Serine/threonine-protein kinase ICK (Homo sapiens) (Q9UPZ9 whole entry): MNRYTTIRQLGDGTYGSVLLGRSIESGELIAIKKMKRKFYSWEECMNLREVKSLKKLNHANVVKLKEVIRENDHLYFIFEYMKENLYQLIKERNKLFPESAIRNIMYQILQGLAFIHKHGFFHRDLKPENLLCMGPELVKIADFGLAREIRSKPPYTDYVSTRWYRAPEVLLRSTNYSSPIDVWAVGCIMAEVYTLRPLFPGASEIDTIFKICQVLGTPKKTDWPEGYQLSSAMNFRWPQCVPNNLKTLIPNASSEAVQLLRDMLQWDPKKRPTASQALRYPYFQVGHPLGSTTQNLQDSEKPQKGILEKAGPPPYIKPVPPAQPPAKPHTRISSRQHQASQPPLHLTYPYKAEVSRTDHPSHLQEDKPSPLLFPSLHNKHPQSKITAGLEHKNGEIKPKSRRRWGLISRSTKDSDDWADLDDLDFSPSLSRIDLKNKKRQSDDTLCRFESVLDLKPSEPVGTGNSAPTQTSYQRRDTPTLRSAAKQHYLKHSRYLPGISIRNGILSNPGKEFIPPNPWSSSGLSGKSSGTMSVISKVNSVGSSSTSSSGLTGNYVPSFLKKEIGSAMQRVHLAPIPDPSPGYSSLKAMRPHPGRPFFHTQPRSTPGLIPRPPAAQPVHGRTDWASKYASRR
Sequence of Activin receptor type-1 (Homo sapiens) (Q04771 whole entry): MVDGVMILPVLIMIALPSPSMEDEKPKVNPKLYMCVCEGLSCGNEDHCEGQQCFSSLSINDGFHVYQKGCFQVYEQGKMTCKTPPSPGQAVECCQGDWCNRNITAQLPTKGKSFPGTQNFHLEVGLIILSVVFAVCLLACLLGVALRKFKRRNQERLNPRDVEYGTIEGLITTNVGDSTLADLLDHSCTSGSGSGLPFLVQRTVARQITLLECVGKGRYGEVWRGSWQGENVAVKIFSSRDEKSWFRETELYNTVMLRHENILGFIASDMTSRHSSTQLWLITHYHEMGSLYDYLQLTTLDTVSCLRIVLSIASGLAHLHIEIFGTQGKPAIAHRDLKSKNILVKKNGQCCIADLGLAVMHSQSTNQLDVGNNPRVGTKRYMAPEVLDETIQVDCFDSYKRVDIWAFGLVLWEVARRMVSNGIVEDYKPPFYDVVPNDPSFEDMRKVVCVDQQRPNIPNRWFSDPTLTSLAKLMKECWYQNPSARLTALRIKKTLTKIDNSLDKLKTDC
Sequence of Phosphatidylinositol 4,5-bisphosphate 3-kinase catalytic subunit alpha isoform (Homo sapiens), P42336 [C420R] (P42336 whole entry C420R, canonical isoform): as the sequence (P42336 whole entry H1047Y, canonical isoform) above, with C420R, Y1047H counted along it

CCCCN(CCCC)C(=O)CN1C[C@@H](c2cc(OC)c3c(c2)OCO3)[C@H](C(=O)O)[C@H]1CC(C)(C)CCC [A-545]
inactive: residual activity [1] 95.7% | residual activity [2] 90.4% | residual activity [3] 87.8% | residual activity [4] 93.3% | residual activity [5] 81.9% | residual activity [6] 90.2% | residual activity [7] 100% | residual activity [8] 84.1% | residual activity [9] 95.8% | residual activity [10] 100% | residual activity [11] 100% | residual activity [12] 81.5% | residual activity [13] 100% | residual activity [14] 82.8% | residual activity [15] 94% | residual activity [16] 100% | residual activity [17] 97.2% | residual activity [18] 76.6% | residual activity [19] 99.6% | residual activity [20] 100% | residual activity [21] 100% | inhibition [22] 8.46% | residual activity [23] 100% | residual activity [24] 100% | residual activity [25] 100% | residual activity [26] 75.2% | residual activity [27] 99.4% | residual activity [28] 98.7% | residual activity [29] 90.6% | residual activity [30] 90.8% | residual activity [31] 83.5% | residual activity [32] 100% | residual activity [33] 99.1% | residual activity [34] 89.7% | residual activity [35] 100% | residual activity [36] 100% | residual activity [37] 100% | residual activity [38] 81.9% | residual activity [39] 99.9% | residual activity [40] 96.7% | residual activity [41] 95.7% | residual activity [42] 97.5% | residual activity [43] 92.6% | residual activity [44] 59.8% | residual activity [45] 100%

CCCCN(CCCC)C(=O)CN1C[C@H](c2cc(OC)c3c(c2)OCO3)[C@@H](C(=O)O)[C@@H]1CC(C)(C)CCC [ABT-546]
inactive: residual activity [1] 100% | residual activity [2] 91.6% | residual activity [3] 100% | residual activity [4] 100% | residual activity [5] 100% | residual activity [6] 90.3% | residual activity [7] 100% | residual activity [8] 100% | residual activity [9] 100% | residual activity [10] 100% | residual activity [11] 72.9% | residual activity [12] 100% | residual activity [13] 100% | residual activity [14] 100% | residual activity [15] 80.2% | residual activity [16] 100% | residual activity [17] 75% | residual activity [18] 64.3% | residual activity [19] 90.6% | residual activity [20] 100% | residual activity [21] 100% | inhibition [22] 24.3% | residual activity [23] 100% | residual activity [24] 94.3% | residual activity [25] 85.2% | residual activity [26] 100% | residual activity [27] 100% | residual activity [28] 100% | residual activity [29] 100% | residual activity [30] 100% | residual activity [31] 80.2% | residual activity [32] 100% | residual activity [33] 98.1% | residual activity [34] 80.9% | residual activity [35] 100% | residual activity [36] 100% | residual activity [37] 100% | residual activity [38] 100% | residual activity [39] 100% | residual activity [40] 100% | residual activity [41] 55.1% | residual activity [42] 100% | residual activity [43] 100% | residual activity [44] 100% | residual activity [45] 94.3%
